Measurements from PubChem BioAssay AID330 (DTP/NCI, 2004).
Several values for one entry are separate records, joined by “and”; a condition that tells them apart may be missing. Identical values can stand only once. Inconclusive results and toxic doses are left out. Rule for the calls: active = survival T/C of 150% or more; inactive = T/C below 125% in these data.

System: P388 leukemia ip, CD2F1 mice, survival T/C
Assay: NCI In Vivo Anticancer Drug Screen. Data for tumor model P388 Leukemia (intraperitoneal) in CD2F1 (CDF1) mice
Details: endpoint: median survival time, higher = longer survival
How it was run: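 Mice carrying the transplanted tumor received test compound or vehicle. Survival was recorded in each group, and the value is the treated-group measurement divided by that of the vehicle-treated control group.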

[1] = dose: 37.5 mg/kg/injection, schedule: Q01DX009 (ip), vehicle: saline with Tween-80
[2] = dose: 75.0 mg/kg/injection, schedule: Q04DX003 (ip), vehicle: saline with Tween-80
[3] = dose: 150.0 mg/kg/injection, schedule: Q04DX003 (ip), vehicle: saline with Tween-80
[4] = dose: 60.0 mg/kg/injection, schedule: Q01DX005 (ip), vehicle: saline with Tween-80
[5] = dose: 120.0 mg/kg/injection, schedule: Q01DX005 (ip), vehicle: saline with Tween-80
[6] = dose: 240.0 mg/kg/injection, schedule: Q01DX005 (ip), vehicle: saline with Tween-80
[7] = dose: 60.0 mg/kg/injection, schedule: Q01DX005 (ip), vehicle: Klucel (hydroxypropylcellulose) (HPC)
[8] = dose: 120.0 mg/kg/injection, schedule: Q01DX005 (ip), vehicle: Klucel (hydroxypropylcellulose) (HPC)
[9] = dose: 240.0 mg/kg/injection, schedule: Q01DX005 (ip), vehicle: Klucel (hydroxypropylcellulose) (HPC)

Measured: T/C

CCOC(=O)c1ccc(N)cc1
inactive: dose: 12.5 mg/kg/injection, schedule: Q01DX009 (ip), vehicle: distilled water + Tween-80 105 % of control | dose: 25.0 mg/kg/injection, schedule: Q01DX009 (ip), vehicle: distilled water + Tween-80 105 % of control | [1] 100 % of control | dose: 37.5 mg/kg/injection, schedule: Q04DX003 (ip), vehicle: saline with Tween-80 91 % of control | dose: 50.0 mg/kg/injection, schedule: Q01DX009 (ip), vehicle: distilled water + Tween-80 104 % of control | dose: 75.0 mg/kg/injection, schedule: Q01DX009 (ip), vehicle: saline with Tween-80 109 % of control | [2] 100 % of control | dose: 100.0 mg/kg/injection, schedule: Q01DX009 (ip), vehicle: distilled water + Tween-80 110 % of control | dose: 150.0 mg/kg/injection, schedule: Q01DX009 (ip), vehicle: saline with Tween-80 100 % of control | [3] 91 % of control | dose: 200.0 mg/kg/injection, schedule: Q01DX009 (ip), vehicle: distilled water + Tween-80 102 % of control

O=[N+]([O-])c1csc([N+](=O)[O-])c1
inactive: dose: 9.37 mg/kg/injection, schedule: Q01DX009 (ip), vehicle: saline with Tween-80 109 % of control | dose: 18.75 mg/kg/injection, schedule: Q01DX009 (ip), vehicle: saline with Tween-80 118 % of control | [1] 122 % of control | [2] 100 % of control | [3] 100 % of control | dose: 300.0 mg/kg/injection, schedule: Q04DX003 (ip), vehicle: saline with Tween-80 109 % of control

Cc1cc(=O)oc2c1ccc1occc(=O)c12
inactive: [4] 96 % of control | [5] 102 % of control | [6] 100 % of control

Cc1ccc(N2CCN(CCCC3(c4ccccc4)OCCO3)CC2C)cc1Cl (configuration not stated)
inactive: dose: 50.0 mg/kg/injection, schedule: Q04DX003 (ip), vehicle: saline 106 % of control and 97 % of control | dose: 100.0 mg/kg/injection, schedule: Q04DX003 (ip), vehicle: saline with Tween-80 107 % of control | dose: 100.0 mg/kg/injection, schedule: Q04DX003 (ip), vehicle: saline 100 % of control and 95 % of control | dose: 200.0 mg/kg/injection, schedule: Q04DX003 (ip), vehicle: saline with Tween-80 117 % of control | dose: 200.0 mg/kg/injection, schedule: Q04DX003 (ip), vehicle: saline 107 % of control and 97 % of control | dose: 400.0 mg/kg/injection, schedule: Q04DX003 (ip), vehicle: saline 107 % of control and 97 % of control

CNC(=S)N/N=C(\C=N\NC(=S)NC)c1ccc(C)cc1
inactive: dose: 50.0 mg/kg/injection, schedule: Q01DX009 (ip), vehicle: Klucel (hydroxypropylcellulose) (HPC) 98 % of control | dose: 100.0 mg/kg/injection, schedule: Q01DX009 (ip), vehicle: Klucel (hydroxypropylcellulose) (HPC) 98 % of control | dose: 200.0 mg/kg/injection, schedule: Q01DX009 (ip), vehicle: Klucel (hydroxypropylcellulose) (HPC) 90 % of control | dose: 400.0 mg/kg/injection, schedule: Q01DX009 (ip), vehicle: Klucel (hydroxypropylcellulose) (HPC) 90 % of control

CN1CCCCC1Cc1ccccc1 (configuration not stated)
inactive: dose: 6.25 mg/kg/injection, schedule: Q01DX005 (ip), vehicle: saline 103 % of control | dose: 12.5 mg/kg/injection, schedule: Q01DX005 (ip), vehicle: saline 102 % of control | dose: 25.0 mg/kg/injection, schedule: Q01DX005 (ip), vehicle: saline 100 % of control

CC1CN(C)CCN1C (configuration not stated)
inactive: dose: 100.0 mg/kg/injection, schedule: Q01DX009 (ip), vehicle: saline with Tween-80 100 % of control | dose: 200.0 mg/kg/injection, schedule: Q01DX009 (ip), vehicle: saline with Tween-80 100 % of control | dose: 400.0 mg/kg/injection, schedule: Q01DX009 (ip), vehicle: saline with Tween-80 95 % of control

CC(C)c1cc(C2C(=O)c3ccccc3C2=O)cc(C(C)C)c1O
inactive: dose: 100.0 mg/kg/injection, schedule: Q04DX002 (ip), vehicle: saline 106 % of control | dose: 200.0 mg/kg/injection, schedule: Q04DX002 (ip), vehicle: saline 114 % of control | dose: 400.0 mg/kg/injection, schedule: Q04DX002 (ip), vehicle: saline 108 % of control

O=C1N2CCCC2(S)C(=O)N2CCCC12[S-].[Zn] (configuration not stated)
inactive: dose: 12.5 mg/kg/injection, schedule: Q01DX009 (ip), vehicle: saline 95 % of control and 97 % of control | dose: 25.0 mg/kg/injection, schedule: Q01DX009 (ip), vehicle: saline 100 % of control and 90 % of control | dose: 50.0 mg/kg/injection, schedule: Q01DX009 (ip), vehicle: saline 108 % of control and 119 % of control | dose: 100.0 mg/kg/injection, schedule: Q01DX009 (ip), vehicle: saline 124 % of control and 95 % of control

Cc1ccc2c(c1)C(=O)n1cccc1C(O)N2 (configuration not stated)
inactive: dose: 0.1 mg/kg/injection, schedule: Q01DX005 (ip), vehicle: water 100 % of control | dose: 0.2 mg/kg/injection, schedule: Q01DX005 (ip), vehicle: water 99 % of control | dose: 0.4 mg/kg/injection, schedule: Q01DX005 (ip), vehicle: water 99 % of control | dose: 0.8 mg/kg/injection, schedule: Q01DX005 (ip), vehicle: water 98 % of control | dose: 1.6 mg/kg/injection, schedule: Q01DX005 (ip), vehicle: water 89 % of control | dose: 5.0 mg/kg/injection, schedule: Q01DX005 (ip), vehicle: distilled water + Tween-80 98 % of control | dose: 10.0 mg/kg/injection, schedule: Q01DX005 (ip), vehicle: distilled water + Tween-80 95 % of control | dose: 20.0 mg/kg/injection, schedule: Q01DX005 (ip), vehicle: distilled water + Tween-80 92 % of control | dose: 40.0 mg/kg/injection, schedule: Q01DX005 (ip), vehicle: distilled water + Tween-80 98 % of control | dose: 80.0 mg/kg/injection, schedule: Q01DX005 (ip), vehicle: distilled water + Tween-80 92 % of control

COc1nc(NC2OC(COC(C)=O)C(OC(C)=O)C(OC(C)=O)C2OC(C)=O)c(C(=O)CCl)c(=O)[nH]1 (configuration not stated)
inactive: [4] 93 % of control | [5] 90 % of control | [6] 101 % of control

CCCCCCC1C/C(=C/N(C)C)C(=O)O1 (configuration not stated)
inactive: [7] 92 % of control | [8] 104 % of control | [9] 92 % of control

CCOC(=O)CC(=O)C(F)(F)F.[Cu+2]
inactive: dose: 2.5 mg/kg/injection, schedule: Q01DX009 (ip), vehicle: saline with Tween-80 100 % of control | dose: 5.0 mg/kg/injection, schedule: Q01DX009 (ip), vehicle: saline with Tween-80 115 % of control | dose: 10.0 mg/kg/injection, schedule: Q01DX009 (ip), vehicle: saline with Tween-80 110 % of control

Cc1ccc(C2OC3=C(Nc4ccc([N+](=O)[O-])cc4N3)C2=O)cc1 (configuration not stated)
inactive: [7] 90 % of control | [8] 93 % of control | [9] 96 % of control

C=CCNCCC1CCCCCC1
inactive: dose: 50.0 mg/kg/injection, schedule: Q01DX005 (ip), vehicle: Klucel (hydroxypropylcellulose) (HPC) 102 % of control

O=[N+]([O-])CC(c1ccccc1)C(C[N+](=O)[O-])c1ccccc1 (configuration not stated)
inactive: dose: 6.25 mg/kg/injection, schedule: Q01DX005 (ip), vehicle: saline with Tween-80 100 % of control | dose: 12.5 mg/kg/injection, schedule: Q01DX005 (ip), vehicle: saline with Tween-80 87 % of control | dose: 25.0 mg/kg/injection, schedule: Q01DX005 (ip), vehicle: saline with Tween-80 95 % of control | dose: 50.0 mg/kg/injection, schedule: Q01DX005 (ip), vehicle: saline with Tween-80 91 % of control | dose: 100.0 mg/kg/injection, schedule: Q01DX005 (ip), vehicle: saline with Tween-80 91 % of control and 86 % of control

COc1cc([C@@H]2c3cc4c(cc3C[C@H]3COC(=O)[C@@H]32)OCO4)cc2c1OCO2
inactive: dose: 1.8 mg/kg/injection, schedule: Q01DX009 (ip), vehicle: distilled water + Tween-80 113 % of control | dose: 3.0 mg/kg/injection, schedule: Q01DX009 (ip), vehicle: Klucel (hydroxypropylcellulose) (HPC) 109 % of control | dose: 3.75 mg/kg/injection, schedule: Q01DX009 (ip), vehicle: distilled water + Tween-80 95 % of control | dose: 6.0 mg/kg/injection, schedule: Q01DX009 (ip), vehicle: Klucel (hydroxypropylcellulose) (HPC) 118 % of control | dose: 12.0 mg/kg/injection, schedule: Q01DX009 (ip), vehicle: Klucel (hydroxypropylcellulose) (HPC) 122 % of control

COC1=C(C)C(=O)c2[nH]ccc2C1=O
inactive: dose: 100.0 mg/kg/injection, schedule: Q04DX002 (ip), vehicle: saline with Tween-80 102 % of control
